The values below come from patent US20250214978A1, “AT2R AGONIST” (WUHAN HUMANWELL INNOVATIVE DRUG RESEARCH AND DEVELOPMENT …, priority 2022, published 2025).

Each structure is given as a SMILES string. Like-named read-outs stand apart in the source and are kept apart here.

One data set concerns the target AT2R (Homo sapiens (Human), UniProt P50052). The data set is described as follows: Binding assay of compounds to AT2R (Tag-lite HTRF ligand binding kit). Conditions: 1 hour incubation at room temperature. On the procedure: The assay was performed in accordance with the instruction manual of Angiotensin AT2 Receptor Ligand Binding Assay Kit (#C1TT1AT2, Cisbio). First, a compound stock solution (10 mM) was diluted in a gradient at a 5× dilution ratio (including 10 concentrations, each with two replicates). 160 nL of compounds at different concentrations was added to a 384-well plate. 40 μL of 1×TLB was added to each well, and the mixture was shaken at room temperature for 15 minutes. 15 mL centrifuge tube added with 5 mL of 1×TLB was prepared in advance. The frozen labeled cells were thawed in a water bath at 37° C. (for 1 to 2 minutes), and the thawed cells were quickly transferred to the above 15 mL centrifuge tube. The mixture was mixed well and centrifuged at 1,000 g at room temperature for 5 minutes. The supernatant was removed, and the cells were resuspended by adding 2.7 mL 1×TLB. A new 384-well plate was taken, and 10 μL of mixed cells were added into the corresponding wells according to the assay design. 5 μL of 4× compound solution and 5 μL of 4× Tag-lite red fluorescent labeled ligand were added to each well. After incubation at room temperature for 1 hour, data were read using EnVision with an HTRF mode. The excitation light intensities at 665 nM and 615 nM in each well were read respectively, and the ratio was calculated (Ratio=A665nMIB615 nM). The IC50 value was calculated by means of GraphPad Prism8 software, where X represents logarithmic value of compound concentration; and Y represents ratio of A665 nM/B615 nM.

The target in the next data set is CYP1A2 (Homo sapiens (Human), UniProt P05177). The data set is described as follows: CYP inhibition assay in mixed human liver microsomes. Format: in vitro ADME. Here is the method:
(§1) The inhibitory effects of the compounds on seven enzymes, i.e., CYP1A2, CYP2C9, CYP2C19, CYP2D6, CYP3A4 (midazolam), CYP2B6, and CYP2C8, were evaluated at a concentration of 10 μM. Mixed human liver microsomes, which were previously stored in a −80° C. refrigerator before use, were taken out and thawed in a water bath at 37° C. before use, and placed on ice for further operation. 100 μL of microsome working solution was taken, and added with 2 μL of test product or positive inhibitor working solution. 2 μL of solvent was added to the solvent control. The mixture was pre-incubated in a water bath at 37° C. for 10 minutes. After preincubation, 98 μL of NADPH regeneration solution was added to all samples to initiate the reaction. Then, the samples were put back into the water bath and incubated for a period of time. The reaction was quenched with 200 μL of stop solution. The plate was centrifuged at 3,220 g for 10 minutes, 100 μL of supernatant was transferred, and 100 μL of water was added and mixed well to the assay plate for LC/MS/MS analysis.
In general terms: Liver microsomes are vesicles of endoplasmic reticulum, rich in cytochrome P450 enzymes.

The target in a further data set is CYP2B6 (Homo sapiens (Human), UniProt P20813). Described as above. Format: in vitro ADME. The conditions noted are these: mixed (pooled) human liver microsomes, read-out: Inhibition rate % CYP2B6. On the procedure: as §1
Sequence of CYP2B6 (P20813 whole entry): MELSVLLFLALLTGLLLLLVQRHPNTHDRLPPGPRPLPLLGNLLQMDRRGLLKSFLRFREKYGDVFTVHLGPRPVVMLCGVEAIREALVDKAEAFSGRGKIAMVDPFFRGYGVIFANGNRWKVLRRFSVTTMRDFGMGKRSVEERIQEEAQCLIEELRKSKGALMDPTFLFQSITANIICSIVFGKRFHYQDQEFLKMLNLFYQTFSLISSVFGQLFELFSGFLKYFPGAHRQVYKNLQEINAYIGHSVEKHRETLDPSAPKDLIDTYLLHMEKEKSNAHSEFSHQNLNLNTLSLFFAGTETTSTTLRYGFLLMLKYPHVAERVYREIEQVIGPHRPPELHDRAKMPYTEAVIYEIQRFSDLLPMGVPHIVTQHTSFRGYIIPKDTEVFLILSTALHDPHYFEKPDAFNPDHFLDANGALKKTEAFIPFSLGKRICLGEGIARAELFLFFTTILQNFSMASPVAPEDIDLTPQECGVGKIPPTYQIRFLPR
The next data set concerns the target CYP2C19 (Homo sapiens (Human), UniProt P33261). The description is as above. Format: in vitro ADME. Conditions: mixed (pooled) human liver microsomes, read-out: Inhibition rate % CYP2C19. On the procedure:
as §1

A further data set deals with CYP2C8 (Homo sapiens (Human), UniProt P10632). Described as above. Format: in vitro ADME. The conditions noted are these: mixed (pooled) human liver microsomes, read-out: Inhibition rate % CYP2C8. Here is the method:
as §1

For a further data set, the target named is CYP2C9 (Homo sapiens (Human), UniProt P11712). The data set is described as above. The class given is in vitro ADME. Conditions: mixed (pooled) human liver microsomes, read-out: Inhibition rate % CYP2C9. Here is the method: as §1
Sequence of CYP2C9 (P11712 whole entry): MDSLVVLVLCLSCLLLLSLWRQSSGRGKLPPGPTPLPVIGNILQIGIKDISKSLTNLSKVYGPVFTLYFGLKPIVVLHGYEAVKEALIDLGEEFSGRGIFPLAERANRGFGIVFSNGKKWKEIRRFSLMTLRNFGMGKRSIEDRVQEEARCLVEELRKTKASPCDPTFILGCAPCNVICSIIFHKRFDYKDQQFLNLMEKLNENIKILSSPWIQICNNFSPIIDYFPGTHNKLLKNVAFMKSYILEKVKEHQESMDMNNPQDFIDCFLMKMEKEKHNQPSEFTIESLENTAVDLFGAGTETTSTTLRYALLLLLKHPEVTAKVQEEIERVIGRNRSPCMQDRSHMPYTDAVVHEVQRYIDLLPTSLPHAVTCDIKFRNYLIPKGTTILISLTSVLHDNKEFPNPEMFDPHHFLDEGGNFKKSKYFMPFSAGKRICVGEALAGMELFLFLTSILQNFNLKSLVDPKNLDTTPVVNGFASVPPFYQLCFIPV
A further data set concerns the target CYP2D6 (Homo sapiens (Human), UniProt P10635). The data set is described as above. The class given is in vitro ADME. Conditions: mixed (pooled) human liver microsomes, read-out: Inhibition rate % CYP2D6. Here is the method:
as §1

The target in a further data set is CYP3A4 (Homo sapiens (Human), UniProt P08684). Described as above. The class given is in vitro ADME. The conditions noted are these: mixed (pooled) human liver microsomes, probe midazolam, read-out: Inhibition rate % CYP3A4 (midazolam). On the procedure:
as §1

Data set [1] can be described thus: Free plasma protein binding (PPB) assay, equilibrium dialysis. Conditions: dialysis 6 hours at 37° C. Format: in vitro ADME. Here is the method:
The dried dialysis membrane was soaked in ultrapure water for 1 hour, then soaked in 20% ethanol for 20 minutes, and then rinsed with ultrapure water for 2 to 3 times. Finally, the dried dialysis membrane was soaked in ultrapure water for 20 minutes for later use. The frozen plasma was thawed in a water bath at 37° C. for about 20 minutes. pH value of the plasma was measured after thawing was complete, and was adjusted to 7.4 with 1% phosphoric acid solution or 0.1M sodium hydroxide solution. […] The pretreated dialysis membrane was assembled into the dialysis plate according to product instructions, and 100 μL of receiving solution (100 mM phosphate buffer solution plus 0.002% Tween 80) was added to one side of the permeable membrane in each dialysis well. 20 μL of each of the final solution of the test compound and the final solution of the control compound were taken in a 96-well sample plate, two duplicate samples were made, and T0 sample was obtained, which was stored in a −20° C. refrigerator. Another 100 μL of each of the above-mentioned final solutions were taken to the other side of the membrane in the dialysis device, two duplicate samples were made, and incubated at 37° C. with constant shaking for 6 hours. After 6 hours of incubation, 20 μL of each of the dialyzed receiving solution and the administered plasma were taken, two duplicate samples were made, and sample A and sample B were obtained. Corresponding blank plasma or receiving solution of corresponding volume were added to sample B and sample A, respectively, allowing the volume ratio of plasma to buffer in each sample well to be 1:1. 300 μL of sample-containing internal standard acetonitrile solution was added to all the sample wells. The mixture was mixed well, and centrifuged at 5,500×g for 10 minutes. 150 μL of corresponding ultrapure water was added to the corresponding sample wells of the 96-well sample plate. 150 μL of the supernatant was taken into the sample wells, and mixed well. Then, LC/MS/MS analysis was performed. The calculation formula of fu is: […]
where: CR: peak area ratio measured in the receiving chamber well CD: peak area ratio measured in the supply chamber well.
Background: In equilibrium dialysis only unbound substance equilibrates across the membrane.

A short description of data set [2]: Liver microsome stability assay. Conditions: Human liver microsomes, NADPH, 37° C.; read-out: T1/2 (min) Human. The class given is in vitro ADME. Here is the method: The human liver microsome stability assay was performed by co-incubating the compound with human liver microsomes in vitro. The test compounds were first prepared as 10 mM stock solutions in DMSO solvent, and then diluted to 0.5 mM with acetonitrile. Human liver microsomes (Corning) were diluted with PBS to prepare a microsome/buffer solution, and this solution was used to dilute 0.5 mM of the compound to prepare a working solution. In the working solution, a concentration of the compound was 1.5 μM and a concentration of the human liver microsome was 0.75 mg/ml. A deep-well plate was taken, 30 μL of working solution was added to each well of the plate, and then 15 μL of pre-heated NADPH solution (6 mM) was added to start the reaction. The mixture was incubated at 37° C. 135 μL of acetonitrile was added to the corresponding wells to stop the reaction at 0 minute, 5 minutes, 15 minutes, 30 minute, and 45 minutes of incubation. Subsequent to the stop of the reaction by means of acetonitrile at the last time point of 45 minute, the plate was vortexed for 10 minutes (600 rpm/min) and then centrifuged for 15 minutes. […] The peak area ratios of the compound at 5 minutes, 15 minutes, 30 minutes, and 45 minutes were compared with the peak area ratio at 0 minute, and the remaining percentage of the compound at each time point was calculated. T1/2 was calculated using Graphpad8 software.

Data set [3] in a line: Liver microsome stability assay. The class given is in vitro ADME. The conditions noted are these: Rat liver microsomes; read-out: T1/2 (min) Rat.
Data set [4] is described as follows: Liver microsome stability assay. Format: in vitro ADME. The conditions noted are these: Mouse liver microsomes; read-out: T1/2 (min) Mouse.
Data set [5] in a line: Liver microsome stability assay. Format: in vitro ADME. The conditions noted are these: dog; Canine liver microsomes; read-out: T1/2 (min) Canine.
Where [6] appears, read: dog, pH 7.4, Canine plasma, read-out: fu % Canine.
Setting [7] is: pH 7.4, Human plasma, read-out: fu % Human.
Where [8] appears, read: pH 7.4, Mouse plasma, read-out: fu % Mouse.
Where [9] appears, read: pH 7.4, Rat plasma, read-out: fu % Rat.

Sequence of AT2R (P50052 whole entry): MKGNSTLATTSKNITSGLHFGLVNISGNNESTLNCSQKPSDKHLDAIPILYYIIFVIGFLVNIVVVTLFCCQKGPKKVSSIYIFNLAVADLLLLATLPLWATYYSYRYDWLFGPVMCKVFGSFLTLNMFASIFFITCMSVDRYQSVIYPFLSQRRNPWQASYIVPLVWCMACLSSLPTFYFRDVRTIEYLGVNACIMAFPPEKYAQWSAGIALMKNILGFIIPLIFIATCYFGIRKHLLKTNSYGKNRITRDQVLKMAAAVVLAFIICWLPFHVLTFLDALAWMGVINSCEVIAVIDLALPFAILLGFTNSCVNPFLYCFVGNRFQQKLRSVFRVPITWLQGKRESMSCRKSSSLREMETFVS
Sequence of CYP3A4 (P08684 whole entry): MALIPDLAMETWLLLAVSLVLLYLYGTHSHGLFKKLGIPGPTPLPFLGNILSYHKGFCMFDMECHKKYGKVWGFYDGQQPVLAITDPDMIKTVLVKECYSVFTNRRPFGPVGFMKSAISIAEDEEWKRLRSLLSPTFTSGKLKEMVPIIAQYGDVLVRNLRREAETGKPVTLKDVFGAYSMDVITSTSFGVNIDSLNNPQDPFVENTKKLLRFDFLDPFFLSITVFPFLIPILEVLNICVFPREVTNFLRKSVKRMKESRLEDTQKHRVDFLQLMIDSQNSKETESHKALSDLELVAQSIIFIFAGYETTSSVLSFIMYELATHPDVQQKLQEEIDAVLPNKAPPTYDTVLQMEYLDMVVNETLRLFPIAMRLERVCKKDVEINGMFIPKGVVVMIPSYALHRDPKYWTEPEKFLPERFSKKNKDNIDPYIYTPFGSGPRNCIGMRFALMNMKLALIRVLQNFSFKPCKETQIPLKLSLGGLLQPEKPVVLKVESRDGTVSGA
Sequence of CYP1A2 (P05177 whole entry): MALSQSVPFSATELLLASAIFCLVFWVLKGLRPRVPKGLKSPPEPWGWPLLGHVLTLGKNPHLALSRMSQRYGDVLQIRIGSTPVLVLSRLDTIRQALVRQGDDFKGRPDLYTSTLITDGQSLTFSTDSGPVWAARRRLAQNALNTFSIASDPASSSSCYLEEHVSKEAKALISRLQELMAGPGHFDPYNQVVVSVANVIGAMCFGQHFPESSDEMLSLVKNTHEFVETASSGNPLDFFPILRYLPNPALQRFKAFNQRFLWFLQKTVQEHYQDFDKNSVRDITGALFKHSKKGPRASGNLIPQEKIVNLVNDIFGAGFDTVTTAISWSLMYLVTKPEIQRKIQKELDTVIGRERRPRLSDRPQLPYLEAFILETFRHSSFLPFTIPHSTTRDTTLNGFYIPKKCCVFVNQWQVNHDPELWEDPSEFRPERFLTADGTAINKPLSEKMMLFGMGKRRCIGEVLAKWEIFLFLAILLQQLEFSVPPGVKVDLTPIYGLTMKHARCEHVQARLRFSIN
Sequence of CYP2C8 (P10632 whole entry): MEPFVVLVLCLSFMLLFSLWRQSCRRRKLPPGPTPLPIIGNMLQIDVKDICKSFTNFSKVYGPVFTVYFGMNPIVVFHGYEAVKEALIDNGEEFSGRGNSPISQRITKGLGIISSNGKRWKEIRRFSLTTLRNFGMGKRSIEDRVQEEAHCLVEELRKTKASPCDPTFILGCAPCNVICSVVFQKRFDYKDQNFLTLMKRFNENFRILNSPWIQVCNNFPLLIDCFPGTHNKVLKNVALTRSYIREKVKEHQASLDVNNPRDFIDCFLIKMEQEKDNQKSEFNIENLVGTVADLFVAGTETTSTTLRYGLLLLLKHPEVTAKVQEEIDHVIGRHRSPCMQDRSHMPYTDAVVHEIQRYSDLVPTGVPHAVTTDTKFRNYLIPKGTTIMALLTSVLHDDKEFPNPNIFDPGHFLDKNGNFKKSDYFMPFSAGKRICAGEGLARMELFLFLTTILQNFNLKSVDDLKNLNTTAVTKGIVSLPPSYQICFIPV
Sequence of CYP2D6 (P10635 whole entry): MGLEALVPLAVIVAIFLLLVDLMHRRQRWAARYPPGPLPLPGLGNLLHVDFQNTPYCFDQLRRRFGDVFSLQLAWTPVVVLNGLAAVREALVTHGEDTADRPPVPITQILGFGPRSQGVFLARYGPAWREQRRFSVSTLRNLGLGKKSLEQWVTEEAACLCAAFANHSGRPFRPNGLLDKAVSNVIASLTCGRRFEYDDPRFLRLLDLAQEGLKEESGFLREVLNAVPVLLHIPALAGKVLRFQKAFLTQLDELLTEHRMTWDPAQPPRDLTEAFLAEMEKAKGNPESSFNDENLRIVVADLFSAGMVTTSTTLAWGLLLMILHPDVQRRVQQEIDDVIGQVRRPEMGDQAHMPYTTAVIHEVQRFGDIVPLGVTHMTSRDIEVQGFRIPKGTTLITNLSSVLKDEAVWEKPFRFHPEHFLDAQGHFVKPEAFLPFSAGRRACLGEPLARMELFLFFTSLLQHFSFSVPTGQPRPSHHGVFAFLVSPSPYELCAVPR
Sequence of CYP2C19 (P33261 whole entry): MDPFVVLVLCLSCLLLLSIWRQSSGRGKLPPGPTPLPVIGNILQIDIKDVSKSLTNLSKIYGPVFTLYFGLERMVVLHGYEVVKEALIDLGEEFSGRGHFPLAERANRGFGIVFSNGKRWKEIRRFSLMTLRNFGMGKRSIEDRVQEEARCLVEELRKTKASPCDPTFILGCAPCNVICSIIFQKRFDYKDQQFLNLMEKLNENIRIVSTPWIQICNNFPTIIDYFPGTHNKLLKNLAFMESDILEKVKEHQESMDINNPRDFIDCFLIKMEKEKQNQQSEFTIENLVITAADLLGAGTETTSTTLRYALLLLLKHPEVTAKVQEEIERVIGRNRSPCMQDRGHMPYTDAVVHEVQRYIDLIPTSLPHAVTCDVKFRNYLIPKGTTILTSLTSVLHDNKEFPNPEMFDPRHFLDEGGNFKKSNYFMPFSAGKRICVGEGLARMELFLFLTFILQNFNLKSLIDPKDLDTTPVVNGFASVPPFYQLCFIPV

As a reminder, the IC50 is the concentration at which inhibition is half-maximal. The low end stands for greater potency, the high end for weaker potency. A word on the inhibition: it is the drop in the measured response relative to a control, in per cent. As for `COC(=O)NS(=O)(=O)c1sc(CC(C)C)cc1-c1ccc(Cn2ccnc2C)cc1C` [Compound I-11, Methyl (5-isobutyl-3-(2-methyl-4-((2-methyl-1H-imidazol-1-yl)methyl)phenyl)thiophen-2-yl)sulfonylcarbamate], on AT2R, the IC50 is 1.51 nM. Besides, the inhibition at 10 µM amounted to 0% at CYP1A2; 27.6% on CYP2B6; 11% at CYP2C19; 12.6% on CYP2C8; 28.3% on CYP2C9; 1.97% on CYP2D6. The inhibition at 10 µM at CYP3A4 turned out to be 13.4%. For the same compound, the fraction unbound at 6 h, 1 μM in data set [1] (setting [6]) is 0.0185; in data set [1] (setting [7]), 0.0039; in data set [1] (setting [8]) it was 0.0121; in data set [1] (setting [9]), 0.0097.

In turn, `CCCCOC(=O)NS(=O)(=O)c1sc(CC(C)C)cc1-c1ccc(Cn2ccnc2C)c(C#N)c1` [Compound I-12, Butyl ((3-(3-cyano-4-((2-methyl-1H-imidazol-1-yl)methyl)phenyl)-5-isobutylthiophen-2-yl)sulfonyl)carbamate] returned an IC50 at AT2R of 1.35 nM. The inhibition at 10 µM amounted to 4.18% at CYP1A2; 31.6% on CYP2B6; 30.2% on CYP2C19; 39.5% on CYP2C8; 45.8% on CYP2C9; 10.4% at CYP2D6. Moreover, on CYP3A4, the inhibition at 10 µM turned out to be 21.1%.

Consider `COC(=O)NS(=O)(=O)c1sc(CC(C)C)cc1-c1ccc(Cn2ccnc2C(C)(C)C)c(C#N)c1` [Compound I-13, Methyl ((3-(4-((2-(tert-butyl)-1H-imidazol-1-yl)methyl)-3-cyanophenyl)-5-isobutylthiophen-2-yl)sulfonyl)carbamate], for which the IC50 at AT2R was 1.72 nM. For the same compound, the inhibition at 10 µM on CYP1A2 is 0.54%; on CYP2B6 it was 18.3%; at CYP2C19 it was 11.7%; at CYP2C8, 82.7%; at CYP2C9, 20.2%; at CYP2D6, 6.5%. Further, the inhibition at 10 µM on CYP3A4 was found to be 0%. In addition, the figures for the fraction unbound at 6 h, 1 μM in [1] (setting [6]), in [1] (setting [8]) and in [1] (setting [9]) were 0.0116, 0.0211 and 0.0043, respectively.

`CCc1nccn1Cc1ccc(-c2cc(CC(C)C)sc2S(=O)(=O)NC(=O)OC)cc1C#N` [Compound I-14, Methyl ((3-(3-cyano-4-((2-ethyl-1H-imidazol-1-yl)methyl)phenyl)-5-isobutylthiophen-2-yl)sulfonyl)carbamate] returned an IC50 on AT2R of 1.68 nM. Moreover, the inhibition at 10 µM on CYP1A2 was found to be 0%; on CYP2B6 it was 16.9%; on CYP2C19, 21.7%; on CYP2C8 it was 50.6%; at CYP2C9 it was 32.8%; at CYP2D6, 11.4%. The inhibition at 10 µM at CYP3A4 worked out at 0%. Further, the fraction unbound at 6 h, 1 μM in data set [1] (setting [8]) stood at 0.0427.

With `COC(=O)NS(=O)(=O)c1sc(CC(C)C)c(C)c1-c1ccc(Cn2ccnc2C)cc1` [Compound I-16, Methyl (5-isobutyl-4-methyl-3-(4-((2-methyl-1H-imidazol-1-yl)methyl)phenyl)thiophen-2-yl)sulfonylcarbamate], the IC50 on AT2R turned out to be 2.68 nM. Further, the inhibition at 10 µM against CYP1A2 came out at 25%; on CYP2B6 it was 11.1%; on CYP2C19 it was 35.3%; on CYP2C8, 33.6%; on CYP2C9, 46.8%; on CYP2D6, 9.54%. For the same compound, the inhibition at 10 µM on CYP3A4 worked out at 6.78%. For the same compound, the fraction unbound at 6 h, 1 μM in data set [1] (setting [6]) was 0.0349; in data set [1] (setting [7]) it was 0.0126; in [1] (setting [9]), 0.0109. Besides, the half-life at 1 μM came out at 239 min in [2], 83.5 min in [3], 1730 min in data set [4] and 578 min in data set [5].
